Experimental data from PubChem BioAssay (NCI).
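Cultured in 96-well plates, cells were exposed to test compound for 48 hours across five concentrations. TGI: concentration producing complete growth inhibition.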

What was measured:
Assay in all cases: NCI anticancer screen, dose series, 48 h
CAKI-1 renal = tested on: CAKI-1 renal
IGROV1 ovarian = tested on: IGROV1 ovarian
MDA-N = tested on: MDA-N
NCI-H226 lung = tested on: NCI-H226 lung
NCI-H460 lung = tested on: NCI-H460 lung
NCI-H522 lung = tested on: NCI-H522 lung
SK-MEL-2 melanoma = tested on: SK-MEL-2 melanoma
SNB-19 CNS = tested on: SNB-19 CNS
T-47D breast = tested on: T-47D breast
TK-10 renal = tested on: TK-10 renal

Row | SMILES | TGI (CAKI-1 renal) [µM] | TGI (IGROV1 ovarian) [µM] | TGI (MDA-N) [µM] | TGI (NCI-H226 lung) [µM] | TGI (NCI-H460 lung) [µM] | TGI (NCI-H522 lung) [µM] | TGI (SK-MEL-2 melanoma) [µM] | TGI (SNB-19 CNS) [µM] | TGI (T-47D breast) [µM] | TGI (TK-10 renal) [µM]
1 | Nc1ccc(Oc2ccc(C34CC5CC6C3CC3CC4C(C5)C6(c4ccc(Oc5ccc(N)c(O)c5)cc4)C3)cc2)cc1O | 27.7 | 22.6 | 14.8 | 14.3 | > 36.1 | 5.73 | 39 | 14.7 | > 63.7 | 19
2 | Cc1nc(C(N)=S)sc1C(=O)C/C(=N/N)C(=O)Nc1ccc(Cl)cc1 | > 100 | > 100 | > 100 | > 100 | > 100 | > 100 | > 100 | > 100 | > 100 | > 100
3 | O=[N+]([O-])c1ccc2c(c1)c(S(=O)(=O)O)cc1nonc12 | > 100 | > 100 | > 100 | > 100 | > 100 | > 100 | > 100 | > 100 | > 100 | > 100
